Results reported in patent US7906655B2, “Hepatitis C virus inhibitors” (Bristol-Myers Squibb Company, priority 2008, dated 2011).

tested on: HCV 1b genotype; experiment: HCV Replicon assay (HCV-neo replicon cells, wild-type); assay type: cell-based; details: HCV 1b genotype replicon; class symbols
Procedure: An HCV Replicon assay was utilized in the present disclosure, and was prepared, conducted and validated as described in commonly owned PCT/US2006/022197 and in O'Boyle et. al. Antimicrob Agents Chemother. 2005 April; 49 (4):1346-53. Assay methods incorporating luciferase reporters have also been used as described (Apath.com).
HCV-neo replicon cells and replicon cells containing mutations in the NS5A region were used to test the currently described family of compounds. The compounds were determined to have more than 10-fold less inhibitory activity on cells containing mutations than wild-type cells. Thus, the compounds of the present disclosure can be effective in inhibiting the function of the HCV NS5A protein and are understood to be as effective in combinations as previously described in application PCT/US2006/022197 and commonly owned WO/O4014852. Further, the compounds of the present disclosure can be effective against the HCV 1b genotype. It should also be understood that the compounds of the present disclosure can inhibit multiple genotypes of HCV. […] In one embodiment, compounds of the present disclosure are inhibitory versus 1a, 1b, 2a, 2b, 3a, 4a, and 5a genotypes.

First: CCC(=O)N1CCC[C@H]1c1nc2cc(C#Cc3ccc4[nH]c([C@@H]5CCCN5C(=O)CC)nc4c3)ccc2[nH]1 [Example M2]
Second: O=C(Cc1ccccn1)N1CCC[C@H]1c1nc2cc(C#Cc3ccc4[nH]c([C@@H]5CCCN5C(=O)Cc5ccccn5)nc4c3)ccc2[nH]1 [Example M7, 5,5′-(1,2-ethynediyl)bis(2-((2S)-1-(2-pyridinylacetyl)-2-pyrrolidinyl)-1H-benzimidazole)]
The EC50 of the first is higher: 4.57 to 99 nM for the first, under 4.57 nM for the second. The second is the more potent here.

C[C@@](O)(C(=O)N1CCC[C@H]1c1nc2cc(C#Cc3ccc4[nH]c([C@@H]5CCCN5C(=O)[C@@](C)(O)c5ccccc5)nc4c3)ccc2[nH]1)c1ccccc1 [Example M16] gave an EC50 of under 4.57 nM.

same assay, conditions: Hepatitis C virus, HCV 1b genotype replicon; class symbols

CC(=O)N1CCC[C@H]1c1nc2c(-c3ncc(-c4ccc5[nH]c([C@@H]6CCCN6C(=O)[C@@H](c6ccccc6)N(C)C)nc5c4)o3)cccc2[nH]1 [Example J27, (1R)-2-((2S)-2-(5-(2-(2-((2S)-1-acetyl-2-pyrrolidinyl)-1H-benzimidazol-4-yl)-1,3-oxazol-5-yl)-1H-benzimidazol-2-yl)-1-pyrrolidinyl)-N,N-dimethyl-2-oxo-1-phenyl-ethanamine] and CN(C)CC(=O)N1CCC[C@H]1c1nc2c(-c3ncc(-c4ccc5[nH]c([C@@H]6CCCN6C(=O)[C@@H](c6ccccc6)N(C)C)nc5c4)o3)cccc2[nH]1 [Example J28, (1R)-2-((2S)-2-(5-(2-(2-((2S)-1-((dimethyl-amino)acetyl)-2-pyrrolidinyl)-1H-benzimidazol-4-yl)-1,3-oxazol-5-yl)-1H-benzimidazol-2-yl)-1-pyrrolidinyl)-N,N-dimethyl-2-oxo-1-phenyl-ethanamine] cannot be ordered by EC50: under 4.57 nM for the first, under 4.57 nM for the second.

COC(=O)N[C@@H](C(=O)N1CCC[C@H]1c1nc2cc(-c3cnc(-c4cccc5[nH]c([C@@H]6CCCN6C(=O)[C@@H](c6ccccc6)N6CCN(C)CC6)nc45)o3)ccc2[nH]1)c1ccccc1 [Example J29, methyl ((1R)-2-(((2S)-2-(5-(2-(2-((2S)-1-((2R)-2-(4-methyl-1-piperazinyl)-2-phenylacetyl)-2-pyrrolidinyl)-1H-benzimidazol-4-yl)-1,3-oxazol-5-yl)-1H-benzimidazol-2-yl)-1-pyrrolidinyl)-2-oxo-1-phenylethyl) carbamate] and COC(=O)N[C@@H](C(=O)N1CCC[C@H]1c1nc2ccc(C(=O)c3ccc4nc([C@@H]5CCCN5C(=O)[C@H](NC(=O)OC)c5ccccc5)[nH]c4c3)cc2[nH]1)c1ccccc1 [Example J33] cannot be ordered by EC50: under 4.57 nM for the first, under 4.57 nM for the second.

Compared with CN(C)[C@@H](C(=O)N1CCC[C@H]1c1nc2ccc(C(=O)c3ccc4nc([C@@H]5CCCN5C(=O)[C@@H](c5ccccc5)N(C)C)[nH]c4c3)cc2[nH]1)c1ccccc1 [Example J32, bis(2-((2S)-1-((2R)-2-(dimethylamino)-2-phenylacetyl)-2-pyrrolidinyl)-1H-benzimidazol-5-yl)methanone], C[C@@H](C(=O)N1CCC[C@H]1c1nc2cc(C#Cc3ccc4[nH]c([C@@H]5CCCN5C(=O)[C@H](C)c5ccccc5)nc4c3)ccc2[nH]1)c1ccccc1 [Example M1, 5,5′-(1,2-ethynediyl)bis(2-((2S)-1-((2R)-2-phenylpropanoyl)-2-pyrrolidinyl)-1H-benzimidazole)] is lower in EC50: 4.57 to 99 nM for the first, under 4.57 nM for the second.

CC(C)C(=O)N1CCC[C@H]1c1nc2cc(C#Cc3ccc4[nH]c([C@@H]5CCCN5C(=O)C(C)C)nc4c3)ccc2[nH]1 [Example M3, 5,5′-(1,2-ethynediyl)bis(2-((2S)-1-isobutyryl-2-pyrrolidinyl)-1H-benzimidazole)] and O=C(C1CC1)N1CCC[C@H]1c1nc2cc(C#Cc3ccc4nc([C@@H]5CCCN5C(=O)C5CC5)[nH]c4c3)ccc2[nH]1 [Example M4, 2-((2S)-1-(cyclopropylcarbonyl)-2-pyrrolidinyl)-5-((2-((2S)-1-(cyclopropylcarbonyl)-2-pyrrolidinyl)-1H-benzimidazol-6-yl)ethynyl)-1H-benzimidazole] fall in the same range of EC50: 4.57 to 99 nM for the first, 4.57 to 99 nM for the second.

First: O=C(c1ccccc1)N1CCC[C@H]1c1nc2cc(C#Cc3ccc4nc([C@@H]5CCCN5C(=O)c5ccccc5)[nH]c4c3)ccc2[nH]1 [Example M6, 2-((2S)-1-benzoyl-2-pyrrolidinyl)-5-((2-((2S)-1-benzoyl-2-pyrrolidinyl)-1H-benzimidazol-6-yl)ethynyl)-1H-benzimidazole]
Second: O=C([C@H](O)c1ccccc1)N1CCC[C@H]1c1nc2cc(C#Cc3ccc4[nH]c([C@@H]5CCCN5C(=O)[C@H](O)c5ccccc5)nc4c3)ccc2[nH]1 [Example M15, (1R,1′R)-2,2′-(1,2-ethynediylbis(1H-benzimidazole-5,2-diyl(2S)-2,1-pyrrolidinediyl))bis(2-oxo-1-phenylethanol)]
The EC50 of the first is higher: 4.57 to 99 nM for the first, under 4.57 nM for the second.

O=C(CC1CC1)N1CCC[C@H]1c1nc2cc(C#Cc3ccc4nc([C@@H]5CCCN5C(=O)CC5CC5)[nH]c4c3)ccc2[nH]1 [Example M8, 2-((2S)-1-(cyclopropylacetyl)-2-pyrrolidinyl)-5-((2-((2S)-1-(cyclopropylacetyl)-2-pyrrolidinyl)-1H-benzimidazol-6-yl)ethynyl)-1H-benzimidazole] and O=C(C1CCC1)N1CCC[C@H]1c1nc2cc(C#Cc3ccc4nc([C@@H]5CCCN5C(=O)C5CCC5)[nH]c4c3)ccc2[nH]1 [Example M9, 2-((2S)-1-(cyclobutylcarbonyl)-2-pyrrolidinyl)-5-((2-((2S)-1-(cyclobutylcarbonyl)-2-pyrrolidinyl)-1H-benzimidazol-6-yl)ethynyl)-1H-benzimidazole] fall in the same range of EC50: 4.57 to 99 nM for the first, 4.57 to 99 nM for the second.

Compared with O=C(Cc1cccnc1)N1CCC[C@H]1c1nc2cc(C#Cc3ccc4[nH]c([C@@H]5CCCN5C(=O)Cc5cccnc5)nc4c3)ccc2[nH]1 [Example M11, 5,5′-(1,2-ethynediyl)bis(2-((2S)-1-(3-pyridinylacetyl)-2-pyrrolidinyl)-1H-benzimidazole)], Cn1cccc1C(=O)N1CCC[C@H]1c1nc2cc(C#Cc3ccc4[nH]c([C@@H]5CCCN5C(=O)c5cccn5C)nc4c3)ccc2[nH]1 [Example M12, 5,5′-(1,2-ethynediyl)bis(2-((2S)-1-((1-methyl-1H-pyrrol-2-yl)carbonyl)-2-pyrrolidinyl)-1H-benzimidazole)] is higher in EC50: under 4.57 nM for the first, 4.57 to 99 nM for the second. The first is the more potent here.

Compared with O=C(c1ccoc1)N1CCC[C@H]1c1nc2cc(C#Cc3ccc4[nH]c([C@@H]5CCCN5C(=O)c5ccoc5)nc4c3)ccc2[nH]1 [Example M13, 5,5′-(1,2-ethynediyl)bis(2-((2S)-1-(3-furoyl)-2-pyrrolidinyl)-1H-benzimidazole)], O=C(C1CCOC1)N1CCC[C@H]1c1nc2cc(C#Cc3ccc4[nH]c([C@@H]5CCCN5C(=O)C5CCOC5)nc4c3)ccc2[nH]1 (stereo partly drawn) [Example M14, 5,5′-(1,2-ethynediyl)bis(2-((2S)-1-(tetrahydro-3-furanylcarbonyl)-2-pyrrolidinyl)-1H-benzimidazole)] is higher in EC50: under 4.57 nM for the first, 4.57 to 99 nM for the second.

COc1cccc2c(C(=O)N3CCC[C@H]3c3nc4cc(C#Cc5ccc6nc([C@@H]7CCCN7C(=O)c7nc(Cl)cc8c(OC)cccc78)[nH]c6c5)ccc4[nH]3)nc(Cl)cc12 [Example M18, 3-chloro-1-(((2S)-2-(5-((2-((2S)-1-((3-chloro-5-methoxy-1-isoquinolinyl)carbonyl)-2-pyrrolidinyl)-1H-benzimidazol-6-yl)ethynyl)-1H-benzimidazol-2-yl)-1-pyrrolidinyl)carbonyl)-5-methoxyisoquinoline] was tested, and the EC50 was 100 to 999 nM.

same assay, conditions: Hepatitis C virus, HCV 1b genotype replicon; numeric values

Point of comparison: COC(=O)N[C@@H](C(=O)N1CCC[C@H]1c1nc2c(-c3ncc(-c4ccc5[nH]c([C@@H]6CCCN6C(=O)[C@@H](c6ccccc6)N6CCN(C)CC6)nc5c4)o3)cccc2[nH]1)c1ccccc1 [Example J30, methyl ((1R)-2-((2S)-2-(4-(5-(2-((2S)-1-((2R)-2-(4-methyl-1-piperazinyl)-2-phenylacetyl)-2-pyrrolidinyl)-1H-benzimidazol-5-yl)-1,3-oxazol-2-yl)-1H-benzimidazol-2-yl)-1-pyrrolidinyl)-2-oxo-1-phenylethyl) carbamate], EC50 0.058 nM. Against it:
- C[C@H](NC(=O)[C@@H](c1ccccc1)N(C)C)c1nc2c(-c3ncc(-c4ccc5[nH]c([C@@H]6CCCN6C(=O)[C@@H](c6ccccc6)N(C)C)nc5c4)o3)cccc2[nH]1 [Example J26, (2R)-2-(dimethyl-amino)-N-((1S)-1-(4-(5-(2-((2S)-1-((2R)-2-(dimethyl-amino)-2-phenylacetyl)-2-pyrrolidinyl)-1H-benzimidazol-5-yl)-1,3-oxazol-2-yl)-1H-benzimidazol-2-yl)ethyl)-2-phenyl-acetamide] — 2.8-fold lower, 0.021 nM
- O=C([C@H]1CCCO1)N1CCC[C@H]1c1nc2cc(C#Cc3ccc4[nH]c([C@@H]5CCCN5C(=O)[C@H]5CCCO5)nc4c3)ccc2[nH]1 [Example M5, 5,5′-(1,2-ethynediyl)bis(2-((2S)-1-((2R)-tetrahydro-2-furanylcarbonyl)-2-pyrrolidinyl)-1H-benzimidazole)] — 170-fold higher, 10 nM
- O=C(c1cccs1)N1CCC[C@H]1c1nc2cc(C#Cc3ccc4[nH]c([C@@H]5CCCN5C(=O)c5cccs5)nc4c3)ccc2[nH]1 [Example M10, 5,5′-(1,2-ethynediyl)bis(2-((2S)-1-(2-thienylcarbonyl)-2-pyrrolidinyl)-1H-benzimidazole)] — 170-fold higher, 10 nM
- COc1ccc2ccc(C(=O)N3CCC[C@H]3c3nc4cc(C#Cc5ccc6[nH]c([C@@H]7CCCN7C(=O)c7ccc8ccc(OC)cc8n7)nc6c5)ccc4[nH]3)nc2c1 [Example M17, 2,2′-(1,2-ethynediylbis(1H-benzimidazole-5,2-diyl(2S)-2,1-pyrrolidinediylcarbonyl))bis(7-methoxyquinoline)] — 340-fold higher, 20 nM
